The target in this assay is T1, beta amyloid (Aβ42) (Homo sapiens, UniProt P05067).
T1 construct: gene APP; synthetic peptide of 42 amino acids β-amyloid Aβ42 (monomers)
The experiment in a line: ITC with Aβ[…] monomers (supported by fluorescence saturation binding with monomers and fibrils).

T1 sequence (P05067 672-713 limits assumed): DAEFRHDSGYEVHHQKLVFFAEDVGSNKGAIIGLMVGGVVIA

On to `CC1=C(c2nc3ccccc3s2)C(C)=[N+]2C1=C(c1ccc(OCC(=O)NCCCOc3c(I)cc(Cl)c4cccnc34)cc1)c1c(C)cc(C)n1[B-]2(F)F` [BDP-CLQ, 2-(4-(2-(benzo[d]thiazol-2-yl)-5,5-difluoro-1,3,7,9-tetramethyl-5H-5λ^4,6λ^4-dipyrrolo [1,2-c:2′,1′-f][1,3,2]diazaborinin-10-yl)phenoxy)-N-(3-((5-chloro-7-iodoquinolin-8-yl)-oxy)propyl)acetamide], for which the Kd (as a rule, the equilibrium constant for the complex coming apart) came out at 4.08 ± 0.2 µM.

Values taken from article PMC12732972, “Bifunctional BODIPY-Clioquinol Copper Chelator with Multiple Anti-AD Properties” (International Journal of Molecular Sciences, 2025).
